From ChEMBL document CHEMBL4483862, “Open-source discovery of chemical leads for next-generation chemoprotective antimalarials” (2018)
pIC50: −log10 of the molar value.

System: Plasmodium berghei
Experiment: Luciferase/luciferin-expressing antifolate-resistant parasites were used to infect a culture of HepG2 cells that were pre-incubated with compounds. Infected hepatocytes emit light due to the luciferase reaction. Assay results are presented as the percent inhibition of light emission compared to control. […]
Assay type: functional
Details: sporozoite; for pIC50: read-out: LUCIFERASE INFECTION ASSAY - IC50; for IC90: read-out: LUCIFERASE INFECTION ASSAY - IC90

## CN(c1nc2ccccc2nc1O)C1CCCCC1
  pIC50: < 5.00
  IC90: > 10 µM

## Nc1cc(Cl)ccc1Oc1ccc2ccccc2c1
  pIC50: < 5.00
  IC90: > 10 µM

## CC(C)Cc1ccc(C(C)NC(=O)c2ccc(O)nc2)cc1 (stereo not given)
  pIC50: < 5.00
  IC90: > 10 µM

## CN(CC(=O)Nc1ccc(F)c(F)c1F)c1cnccn1
  pIC50: < 5.00
  IC90: > 10 µM

## c1ccc2c(C3=NN=C(NC4CCCCC4)SC3)c[nH]c2c1
  pIC50: < 5.00
  IC90: > 10 µM

## Nc1ccc(SC(F)(F)F)cc1
  pIC50: < 5.00
  IC90: > 10 µM

## Cn1cccc1C(=O)OCC(=O)NCc1cccs1
  pIC50: < 5.00
  IC90: > 10 µM

## CN(C)C(=O)COC(=O)c1cccc(CN2C(=O)c3ccccc3C2=O)c1
  pIC50: < 5.00
  IC90: > 10 µM

## O=c1c2ccccc2cnn1-c1nc2ccccc2s1
  pIC50: 6.67
  IC90: 1.01 µM

## O=C(Nc1ccccc1)c1ccc(CN2CCN(CCOc3ccccc3)CC2)cc1
  pIC50: 6.19
  IC90: 1.96 µM

## COc1ccc(-c2csc3ncnc(NC4CCN(CC(N)=O)CC4)c23)cc1
  pIC50: 5.29
  IC90: 8.68 µM

## O=S(=O)(NCCNc1cnccn1)c1ccc(OC(F)(F)F)cc1
  pIC50: < 5.00
  IC90: > 10 µM

## O=C(Nc1ncc(Cc2cc(F)cc(F)c2)s1)c1ccc2nc[nH]c2c1
  pIC50: 5.54
  IC90: 6.19 µM

## COc1ccc(Nc2nc(NCCO)c3ccccc3n2)cc1
  pIC50: < 5.00
  IC90: > 10 µM

## Cc1cc(NC(=O)CCNC(C)c2ccc(CC(C)C)cc2)no1 (stereo not given)
  pIC50: < 5.00
  IC90: > 10 µM

## c1ccc2c(Nc3nc(C4CC4)cs3)ncnc2c1
  pIC50: < 5.00
  IC90: > 10 µM

## Cc1cc(C(=O)OCC(=O)NC2CCCCCCC2)c(C)n1-c1ccccc1
  pIC50: < 5.00
  IC90: > 10 µM

## N#CCc1c(C#N)c(N)nc(Nc2ccc(F)cc2F)c1C#N
  pIC50: 5.44
  IC90: 6.78 µM

## Cc1cnc(Nc2ncnc3ccccc23)s1
  pIC50: < 5.00
  IC90: > 10 µM

## C#Cc1cccc(NC(=O)c2[nH]c(C)c(C(=O)OCC)c2C)c1
  pIC50: < 5.00
  IC90: > 10 µM

## COc1cc(OC)c2[nH]c(C(=O)NCCc3ccc(-c4csc(C)n4)s3)cc2c1
  pIC50: < 5.00
  IC90: > 10 µM

## O=C(Nc1ccc(-c2csc(NC(=O)c3c[nH]nc3-c3ccccc3)n2)cc1)c1ccccc1
  pIC50: 5.62
  IC90: 7.36 µM

## Cc1ccc(Nc2nc(NCCO)c3ccccc3n2)cc1
  pIC50: 5.32
  IC90: > 10 µM

## Nc1nccnc1C(=O)Nc1nc2ccc(Oc3ccccc3)cc2s1
  pIC50: < 5.00
  IC90: > 10 µM

## Clc1ccc2c(Nc3ccc(N4CCOCC4)cc3)ccnc2c1
  pIC50: < 5.00
  IC90: > 10 µM

## O=C(Cc1ccccc1)OC1(C(F)(F)F)C(=O)Nc2c1ccc1ccccc21 (stereo not given)
  pIC50: < 5.00
  IC90: > 10 µM

## COc1cc(NC(=O)CN2CC=C(c3c[nH]c4ccccc34)CC2)cc(OC)c1OC
  pIC50: < 5.00
  IC90: > 10 µM

## CN(C)Cc1ccc(CNc2ncnc3scc(-c4ccccc4)c23)cc1
  pIC50: 6.15
  IC90: 2.66 µM

## O=C(Nc1nc(CN2CCOCC2)cs1)c1ccccc1Nc1ccccc1
  pIC50: < 5.00
  IC90: > 10 µM

## Cc1cc(-c2csc(Nc3ccccn3)n2)c(C)n1-c1nccs1
  pIC50: < 5.00
  IC90: > 10 µM

## OCc1cccc(Nc2nc(-c3ccsc3)nc3ccccc23)c1
  pIC50: < 5.00
  IC90: > 10 µM

## CCCn1c(NC(=O)C2CC(=O)N(Cc3ccc(C)cc3)C2)nc2ccccc21 (stereo not given)
  pIC50: < 5.00
  IC90: > 10 µM

## O=C(Nc1ccc(CNc2ncnc3cc(Cl)ccc23)cc1)C1CC1
  pIC50: 6.26
  IC90: 1.46 µM

## O=C(Nc1nc(-c2c[nH]c3ccccc23)cs1)c1coc(Br)c1
  pIC50: < 5.00
  IC90: > 10 µM

## CNC(=O)c1cccc(NC(=O)c2cc(Cl)c[nH]2)c1
  pIC50: < 5.00
  IC90: > 10 µM

## COCCNc1nc(-c2c(-c3ccccc3)[nH]c3ccccc23)cs1
  pIC50: < 5.00
  IC90: > 10 µM

## CNc1ccccc1C(C)(C)c1cc(-c2ccc(Cl)cc2)no1
  pIC50: 5.32
  IC90: > 10 µM

## CCn1c(=O)c(=O)[nH]c2cc(C(=O)Nc3cccc(C#Cc4cccs4)c3)ccc21
  pIC50: < 5.00
  IC90: > 10 µM

## Cc1cc2occ(CC(=O)Nc3ccc(N4CCN(C)CC4)nc3)c2cc1C(C)C
  pIC50: 5.02
  IC90: > 10 µM

## O=C(Nc1ccnn1Cc1cccc(Cl)c1)c1csc(-c2ccsc2)n1
  pIC50: < 5.00
  IC90: > 10 µM

## CCN(CC)CCn1c(NC(=O)c2cc(C(C)=O)c[nH]2)nc2ccccc21
  pIC50: 5.74
  IC90: > 10 µM

## COc1cc2nc(-c3ccccc3)nc(N3CCN(c4ccncc4)CC3)c2cc1OC
  pIC50: < 5.00
  IC90: > 10 µM

## CN(CC(=O)Nc1nc2ccc(Cl)cc2s1)S(=O)(=O)c1ccc(C#N)cc1
  pIC50: 5.24
  IC90: 8.36 µM

## COc1ccc(-c2csc3ncnc(NCCC(C)C)c23)cc1
  pIC50: < 5.00
  IC90: > 10 µM

## COc1cc(Nc2ncnc3ccsc23)cc(OC)c1
  pIC50: 6.01
  IC90: 2.61 µM

## CC(NC(=O)COC(=O)COc1ccc2c(c1)CCC(=O)N2)c1ccco1 (stereo not given)
  pIC50: < 5.00
  IC90: > 10 µM

## CC1N(C)c2ccc(/C=C/c3cc[n+](C)cc3)cc2C1(C)C (stereo not given)
  pIC50: 5.48
  IC90: 4.04 µM

## CC(NC(=O)NC(=O)c1ccccc1)C1CC2CCC1C2 (stereo not given)
  pIC50: < 5.00
  IC90: > 10 µM

## CCOc1ccc(CN(C)c2cc(-c3ccccc3)c3ccccc3n2)cc1OC
  pIC50: < 5.00
  IC90: > 10 µM

## COc1ccc(NC(=O)c2cc(S(N)(=O)=O)ccc2Br)cc1Cc1ccccc1
  pIC50: < 5.00
  IC90: > 10 µM

## Cc1cc(C(=O)COc2ccc(-c3nnco3)cc2)c(C)n1-c1ccc(F)cc1
  pIC50: 5.08
  IC90: > 10 µM

## CCc1cccc2c(C3=CCN(c4ncnc5c4cnn5C)CC3)c[nH]c12
  pIC50: < 5.00
  IC90: > 10 µM

## O=C(Nc1cccc(C#Cc2ccccc2)c1)c1ccoc1
  pIC50: < 5.00
  IC90: > 10 µM

## COc1ccc(-n2cc(-c3ccccc3)c3c(NCc4cccnc4)ncnc32)cc1
  pIC50: < 5.00
  IC90: > 10 µM

## Cc1cc(-c2cc(C(=O)NCc3ccc(Cn4cncn4)cc3)c3cnn(C(C)C)c3n2)c(C)s1
  pIC50: < 5.00
  IC90: > 10 µM

## CS(=O)(=O)Nc1ccc(-c2csc(NC(=O)c3ccc4ncsc4c3)n2)cc1
  pIC50: < 5.00
  IC90: > 10 µM

## O=C(Nc1ccc2c(c1)OC(F)(F)O2)c1ccc(F)c(F)c1
  pIC50: 5.02
  IC90: > 10 µM

## COc1ccc(C(C)(C)C)cc1NC(=O)c1ccc(NC(=O)Nc2ccccc2)s1
  pIC50: 5.25
  IC90: 5.68 µM

## COc1ccc(NC(=O)C(C(=O)Nc2ccc(OC)cc2)C23CC4CC(CC(C4)C2)C3)cc1
  pIC50: 5.15
  IC90: > 10 µM

## O=C(Nc1ncccc1O)c1ccc(-c2ccccc2)cc1
  pIC50: 5.34
  IC90: 8 µM

## O=C(CSc1nnc(-c2ccncc2)[nH]1)NC1CCCc2ccccc21 (stereo not given)
  pIC50: < 5.00
  IC90: > 10 µM

## O=C(Cc1csc(NC(=O)c2ccccc2)n1)Nc1ncccc1O
  pIC50: < 5.00
  IC90: > 10 µM

## COc1cc2nc(NC(=O)c3[nH]c4c(c3C)C(=O)CCC4)sc2cc1OC
  pIC50: < 5.00
  IC90: > 10 µM

## O=C(COc1nnc2ccccn12)Nc1cccc2ccccc12
  pIC50: < 5.00
  IC90: > 10 µM

## O=C(Nc1ncc(Cc2cccc(Cl)c2Cl)s1)c1ccncc1
  pIC50: 5.49
  IC90: 7.55 µM

## NS(=O)(=O)c1cccc(NC(=O)CCc2ccccc2Cl)c1
  pIC50: < 5.00
  IC90: > 10 µM

## CC1CC1C(=O)Nc1cccc(S(=O)(=O)N(C)c2ccccc2)c1 (stereo not given)
  pIC50: < 5.00
  IC90: > 10 µM

## Cc1cc(C(=O)Nc2nc3ccccc3[nH]2)c(C)s1
  pIC50: < 5.00
  IC90: > 10 µM

## NS(=O)(=O)c1ccc(CCNc2cc(-c3ccccc3)c3cc4c(cc3n2)OCCO4)cc1
  pIC50: 5.46
  IC90: 6.08 µM

## O=C(Nc1cc(S(=O)(=O)N2CCCCCC2)ccc1OCC(F)(F)F)c1cccc2c[nH]nc12
  pIC50: < 5.00
  IC90: > 10 µM

## Cc1ccc(C2=NNC(=NC3CC3)SC2)cc1
  pIC50: 5.84
  IC90: > 10 µM

## Cc1nc(Nc2ccc(Cl)cc2)sc1C(=O)Nc1ccccc1
  pIC50: < 5.00
  IC90: > 10 µM

## Cn1nnnc1Sc1ncnc2cc(-c3ccc(F)cc3)sc12
  pIC50: < 5.00
  IC90: > 10 µM

## O=C(OCC1CCCCC1)c1[nH]nc2ccccc12
  pIC50: < 5.00
  IC90: > 10 µM

## Cc1ccc(-c2nc(SCCC(N)=O)[nH]c2-c2ccc(C)cc2)cc1
  pIC50: < 5.00
  IC90: > 10 µM

## Cc1nn(-c2ccccc2)c2sc(C(=O)N3c4ccccc4CC3C)cc12 (stereo not given)
  pIC50: < 5.00
  IC90: > 10 µM

## Clc1ccc2c(NCc3ccc(N4CCOCC4)nc3)ncnc2c1
  pIC50: < 5.00
  IC90: > 10 µM

## c1ccc(C(Nc2ncnc3ccsc23)c2cccs2)cc1 (stereo not given)
  pIC50: 5.94
  IC90: 2.58 µM

## CCn1c(=O)c(=O)[nH]c2cc(C(=O)Nc3ccc(Oc4ccccc4)cc3)ccc21
  pIC50: < 5.00
  IC90: > 10 µM

## Fc1ccc(-c2c[n+](-c3ccccc3)c3n2CCCS3)cc1
  pIC50: < 5.00
  IC90: > 10 µM

## CCOC(=O)c1c(C)[nH]c(C(=O)Nc2ccnn2C2CCCC2)c1C
  pIC50: 5.16
  IC90: 6.13 µM

## Cc1[nH]c2ccccc2c1C(c1ccccc1)N1CCN(C)CC1 (stereo not given)
  pIC50: < 5.00
  IC90: > 10 µM

## Nc1nccnc1C(=O)Nc1nnc(-c2cccc(Br)c2)[nH]1
  pIC50: < 5.00
  IC90: > 10 µM

## CCN(CC)S(=O)(=O)c1ccc(-c2csc(Nc3ccccn3)n2)cc1
  pIC50: < 5.00
  IC90: > 10 µM

## CCN1CCC(N(C)c2ncnc3sc(-c4ccccc4)cc23)CC1
  pIC50: < 5.00
  IC90: > 10 µM

## O=C(Nc1ccnn1-c1nc2ccccc2[nH]1)C(c1ccccc1)c1ccccc1
  pIC50: 5.23
  IC90: 9.69 µM

## CC1SC(=Nc2ccc(S(=O)(=O)N3CCOCC3)cc2)NN=C1C12CC3CC(CC(C3)C1)C2 (stereo not given)
  pIC50: < 5.00
  IC90: > 10 µM

## c1nc(NCC23CC4CC(CC(C4)C2)C3)c2sccc2n1
  pIC50: < 5.00
  IC90: > 10 µM

## O=C(Nc1nc(CN2CCCCC2)cs1)c1ccc2[nH]c3c(c2c1)CCCC3
  pIC50: < 5.00
  IC90: > 10 µM

## CC(C)c1ccc(C(NCC(=O)NC(=O)NC2CCCC2)c2cccs2)cc1 (stereo not given)
  pIC50: < 5.00
  IC90: > 10 µM
